Literature values in US20260263393A1, “CO[…], […] COMBINATION WITH N-ACYLETHANOLAMINES, AND USES THEREOF” (Clearmind Labs Corp., priority 2023, published 2026).

Conditions: ibogaine administered to treat drug dependence

In the case of `CC[C@H]1CC2C[C@H]3c4[nH]c5ccc(OC)cc5c4CC[N@@](C2)C13` [ibogaine, Ibogaine], the “reduction in drug craving (duration)” value is listed as “up to several weeks” and the “sustained resolution of the withdrawal syndromes (time to)” value is listed as 12 to 18 h.
